These results are taken from patent US7501421B2, “Benzoxazole and benzothiazole derivatives as 5-hydroxytryptamine-6 ligands” (Wyeth, priority 2006, dated 2009).

Where a name gives a salt, the structure may show the parent alone.

Sequence of human cloned 5-HT6 receptors (P50406 whole entry): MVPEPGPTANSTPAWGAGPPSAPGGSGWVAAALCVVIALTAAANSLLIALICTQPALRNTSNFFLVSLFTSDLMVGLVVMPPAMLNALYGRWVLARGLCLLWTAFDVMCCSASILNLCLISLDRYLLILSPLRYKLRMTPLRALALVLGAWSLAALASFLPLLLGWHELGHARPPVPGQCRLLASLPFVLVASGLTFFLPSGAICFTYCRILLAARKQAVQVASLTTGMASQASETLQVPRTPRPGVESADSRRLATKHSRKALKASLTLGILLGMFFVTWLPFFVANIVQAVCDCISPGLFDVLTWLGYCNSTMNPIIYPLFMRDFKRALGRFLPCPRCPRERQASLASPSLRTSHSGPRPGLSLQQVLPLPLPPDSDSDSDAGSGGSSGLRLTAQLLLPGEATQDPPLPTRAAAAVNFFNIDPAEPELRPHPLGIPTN

The experiment concerns the target human cloned 5-HT6 receptors (Homo sapiens, UniProt P50406). As to the kind of experiment: Evaluation of 5-HT6 binding affinity ([3H]-LSD radioligand binding).
By Ki is commonly meant a dissociation constant, usually derived from enzyme kinetics or from competition with a known ligand. Read a high Ki as a looser hold on the target. With `O=S(=O)(c1ccccc1)c1cccc2oc(N3CCNCC3)nc12` [Example 13], the Ki amounted to 67 nM.
Consider `CN1CCN(c2nc3c(S(=O)(=O)c4cccc5ccccc45)cccc3o2)CC1` [Example 22, 2-(4-Methylpiperazin-1-yl)-4-(1-naphthylsulfonyl)benzoxazole Dihydrochloride], for which the affinity corresponds to a Ki of 10 nM. This Ki lies about 6.7-fold lower than the previous one.
`O=S(=O)(c1cccc2ccccc12)c1cccc2oc(N3CCN(C4CCCC4)CC3)nc12` [Example 30] had a Ki of 78 nM. Against the preceding compound, the Ki is about 7.8-fold higher.
With `O=S(=O)(c1cccc2ccccc12)c1cccc2oc(N3CCN(C4CCCCC4)CC3)nc12` [Example 31], the Ki was determined as 91 nM.
Regarding `O=S(=O)(c1cccc2ccccc12)c1cccc2nc(N3CCNCC3)oc12` [Example 34, 7-(1-naphthylsulfonyl)-2-piperazin-1-ylbenzoxazole Dihydrochloride], the affinity, expressed as Ki, was 7 nM.
The compound `O=S(=O)(c1ccc2nc(N3CCNCC3)sc2c1)c1cccc2ccccc12` [Example 41, 6-(1-Naphthylsulfonyl)-2-piperazin-1-ylbenzothiazole Dihydrochloride] displayed a Ki of 500 nM.
